The values below come from article PMC10720262, “Molecular determinants of cross-reactivity and potency by VH3-33 antibodies against the Plasmodium falciparum circumsporozoite protein” (Cell Reports, 2023).

Like-named read-outs stand apart in the source and are kept apart here.

Assay [1] addresses recombinant full-length PfCSP (strain NF54). The assay is described as follows: Biolayer interferometry (BLI) binding to recombinant PfCSP. Details: species or system Plasmodium falciparum. The settings on record: Octet RED96, His-tagged PfCSP 10 μg/mL on Ni-NTA biosensors, 2-fold dilutions of mAb in PBS pH 7.4/0.01% BSA/0.002% Tween 20, 1:1 binding model. Here is the method:
The resulting plasmid was transfected into FreeStyle HEK293F cells and GFP fluorescence was used to select for single cells via FACS. The selected single cell was expanded and cultured in GIBCO Freestyle 293 Expression Medium and maintained with 200 μg/mL of geneticin (G418 solution; Invivogen). Protein expression was enabled by subculturing the stable cells without antibiotic to a density of 8 x 10^5 cells/mL and harvested after 5–7 days.
After a steady baseline was established, biosensors were dipped into wells containing 2-fold dilutions of each mAb in kinetics buffer. Tips were then immersed back into kinetics buffer for measurement of the dissociation rate. Kinetics data were analyzed using the FortéBio’s Octet Data Analysis software 9.0.0.6, and curves were fitted to a 1:1 binding model.
(BLI is a label-free optical method that tracks binding on a fibre tip over time.)

The subject of assay [2] is NPDP peptide ([…]). The assay is described as follows: Peptide ELISA (AUC), NPDP. It is filed as binding, Plasmodium falciparum. The settings on record: plates coated with 2 μg/mL peptide; mAb from 1.0 μg/mL, 1 in 4 dilution, 4 steps; area under ELISA curve; mean of three independent experiments. Here is the method:
(§1) With the exception of NANP6, all other peptides were acetylated at N-termini and amidated at C-termini. NANP6 contained an N-terminal biotin-aminohexanoic acid tag and an unmodified C terminus.
(§2) Antigen ELISAs were performed as previously described.[21]^,[25] In brief, high-binding 384-well polystyrene plates (Corning) were coated overnight at 4°C with 2 μg/mL of the indicated peptides synthesized at PSL, Heidelberg. Plates were washed three times with 0.05% Tween 20 in PBS, blocked with 50 μL of 1% BSA in PBS for 1 h at room temperature (RT), and washed again. For analysis of mAbs, 15 μL/well of serially diluted mAbs (starting concentration 1.0 μg/mL, 1 in 4 dilution for 4 steps) were incubated for 2 h at RT. Wells were washed six times and incubated with goat anti-human IgG-HRP at a 1:1000 dilution (Jackson ImmunoResearch) in PBS with 1% BSA for 1 h. Wells were washed again and one-step ABTS substrate (RT, 20 μL/well; Roche) and 1× KPL ABTS peroxidase stop solution (RT, 20 μL/well; SeraCare Life Sciences) were used for detection. Area under the ELISA curve (AUC) was calculated using GraphPad Prism 7.04 (GraphPad).

In assay [3] the test system is NANP3 peptide ([…]). In words: Peptide ELISA (AUC), NANP3. Type of assay: binding, Plasmodium falciparum. Here is the method: as §1, §2
On the technique in general: ELISA stands for enzyme-linked immunosorbent assay.

Assay [4] addresses KQPA peptide ([…]). The assay is described as follows: SPR (Carterra LSA), KQPA peptide. The settings on record: mAb immobilized on CMD200M chip, peptide 2-fold series, top 8 μg/mL (5.03 μM), 1X HBSTE pH 7.4, 25°C, 1:1 Langmuir model, mean of best triplicate. Type of assay: binding, Plasmodium falciparum. The source says: (§3) Synthetic peptides were custom made by Peptide Speciality Laboratory (PSL), Heidelberg (KQPA ([…]), NPDP ([…]), DND ([…]), NDN ([…]) and NANP3 ([…])), CPC Scientific (NPNA3 ([…]), NANP6 ([…]), KQPA, NPDP and NVDP ([…])) or GenScript (KQPA, NPDP, NANP3, NDN, DND, and NANP5 ([…])). With the exception of NANP6, all other peptides were acetylated at N-termini and amidated at C-termini. NANP6 contained an N-terminal biotin-aminohexanoic acid tag and an unmodified C terminus.
(§4) In each assay, a single analyte peptide antigen (KQPA, NPDP, NVDP, NPNA3 or NANP6) was titrated against the immobilized mAbs. Using 10 mM MES buffer at pH 5.5 with 0.01% Tween 20 as running buffer, the chip was first activated by N-Hydroxysuccinimide (NHS) and 1-Ethyl-3-(3-dimethylaminopropyl) carbodiimide hydrochloride (EDC). Then, PfCSP-specific mAbs were directly immobilized (in 10 mM sodium acetate at pH 4.5) at 10 μg/mL or 5 μg/mL concentrations for 600 s, followed by quenching of unreactive esters using 1 M ethanolamine-HCl at pH 8.5. […]
(§5) The kinetics titration data collected were first pre-processed in the Kinetics (Carterra) software, including reference subtraction, buffer subtraction and data smoothing. The data were then exported and analyzed using the TitrationAnalysis tool developed in-house.[58] […] For antigens with multiple repeats of epitopes, the KD values determined includes avidity effect.

Assay [5] has as its system NDN peptide ([…]). In words: Peptide ELISA (AUC), NDN. It is filed as binding, Plasmodium falciparum. As for the experimental part:
as §1, §2

The target in assay [6] is NANP3 peptide ([…]). In words: SPR (Biacore T200), NANP3 peptide. It is filed as binding, Plasmodium falciparum. Here is the method:
as §1
(§6) Affinity of 56 VH3-33 mAbs to DND and NANP3 peptides were measured using SPR in Biacore Cytiva T200, as described before.[21] In brief, series S sensor chip CM5 (GE Healthcare) was docked in the instrument and 10 mM HEPES (pH 7.4) containing 200 mM NaCl, 0.02% Tween 20 and 0.05% BSA was used as running buffer. Anti-human IgG from human antibody capture kit (GE Healthcare) was immobilized in both flow cells through amine coupling following manufacturer’s instructions. […] Upon stabilizing flow cells with running buffer for 20 min, indicated peptides synthesized at PSL Heidelberg were injected at 0, 0.015, 0.09, 0.55, 3.3 and 20 μM concentration at a flow rate of 30 μL/min. Association and dissociation of the peptides were measured at 25°C for 60 s and 180 s, respectively. 3M MgCl2 was used for the regeneration of both flow cells. 1:1 binding model or steady-state kinetic analysis in the Biacore T200 software V2.0 was used for fitting the data and obtaining kinetic rates and constant.

For assay [7], the target named is NPNA3 peptide ([…]). In words: SPR (Carterra LSA), NPNA3 peptide. Type of assay: binding, Plasmodium falciparum. The settings on record: mAb immobilized on CMD200M chip, peptide 2-fold series, top 8 μg/mL (6.41 μM), 1X HBSTE pH 7.4, 25°C, 1:1 Langmuir model, mean of best triplicate.
Source text: as §3, §4, §5

The test system of assay [8] is KQPA peptide ([…]). The assay is described as follows: Peptide ELISA (AUC), KQPA. It is filed as binding, Plasmodium falciparum. Here is the method:
as §1, §2

The test system of assay [9] is Pf sporozoites (traversal of HC-04 cells). In words: In vitro sporozoite traversal assay. Type of assay: cell-based, Plasmodium falciparum. The settings on record: Pf NF54 sporozoites pre-incubated with diluted IgG 30 min, rhodamine dextran, 1 h at 37°C, high content imaging. As for the experimental part:
Pf NF54 asexual and sexual blood stage parasites were cultured in a semi-automated culture system as described by Ponnudurai.[69]^,[70] Sporozoites were produced by feeding Anopheles stephensi mosquitos (Sind-Kasur Nijmegen strain) using standard membrane feeding of cultured gametocytes, as was described by Feldmann.[71] Salivary glands were dissected, collected in Leibovitz L15 medium supplemented with 1% PenStrep and homogenized in a homemade glass grinder. Sporozoites were counted in a Bürker-Türk counting chamber using phase-contrast microscopy.
Human hepatoma (HC-04) cells were seeded in microtiter plates and grown to near confluence. Fresh P. falciparum salivary gland sporozoites[56] were isolated from Anopheles stephensi mosquitoes and pre-incubated with diluted IgG for 30 min before adding rhodamine dextran. Following incubation for 1 h at 37°C, cell nuclei were stained with DAPI. Fluorescence levels of traversed cells were quantitated using a high content automated imager.

Assay [10] deals with NANP6 peptide ([…]). The assay is described as follows: SPR (Carterra LSA), NANP6 peptide. It is filed as binding, Plasmodium falciparum. The note with it: mAb immobilized on CMD200M chip, peptide 2-fold series, top 8 μg/mL (2.92 μM), 1X HBSTE pH 7.4, 25°C, 1:1 Langmuir model, mean of best triplicate, KD includes avidity effect for antigens with multiple repeats of epitopes.
Source text: as §3, §4, §5

Assay [11] addresses NPDP peptide ([…]). The assay is described as follows: SPR (Carterra LSA), NPDP peptide. The settings on record: mAb immobilized on CMD200M chip, peptide 2-fold series, top 8 μg/mL ([…]), 1X HBSTE pH 7.4, 25°C, 1:1 Langmuir model, mean of best triplicate. Type of assay: binding, Plasmodium falciparum.
Source text: as §3, §4, §5

Assay [12] has as its system transgenic Plasmodium berghei sporozoites expressing PfCSP (PbPfCSP). In words: Liver burden reduction assay. The settings on record: C57BL/6 mice, 100 μg mAb i.v., 16 h later 2,000 PbPfCSP sporozoites i.v., bioluminescence 42 h after challenge; relative to naive mice; n=5. It is filed as in vivo, Plasmodium berghei in C57BL/6 mice. The source says: P. berghei transgenic parasites expressing PfCSP, GFP and luciferase were generated as previously described.[57] Briefly, P. berghei, strain ANKA 676m1c11, which expresses GFP and luciferase were obtained from MR4 (ATCC). Parasites were transfected to replace the CSP gene with a modified gene consisting of the CSP of Pf. To obtain sporozoites, Anopheles stephensi mosquitos were fed on mice infected with the parasite. 19–22 days later salivary glands from the infected mosquitos were obtained and sporozoites were isolated to infect mice.
Parasite challenge to measure liver burden was assessed as previously described.[57] Briefly, 6-8-week-old C57BL/6 female mice were injected intravenously with 100 μg of the respective mAb. Mice were challenged 16 h later with 2,000 PfCSP-expressing transgenic Pb sporozoites delivered i.v. in HBSS-2% FBS. Mice were injected intraperitoneally with 100 μL of D-luciferin at 30 mg/mL 42 h after sporozoite challenge, anesthetized with isoflurane and imaged in the IVIS Spectrum Imaging System to measure the bioluminescence expressed by the transgenic parasite.

Assay [13] has as its target DND peptide ([…]). In words: SPR (Biacore T200), DND peptide. Type of assay: binding, Plasmodium falciparum. As for the experimental part:
as §1, §6

Assay [14] deals with DND peptide ([…]). In words: Peptide ELISA (AUC), DND. Type of assay: binding, Plasmodium falciparum. The note with it: ELISA Area Under the Curve. Here is the method: as §1, §2
Setting [15] is: plates coated with 2 μg/mL peptide, mAb from 1.0 μg/mL, 1 in 4 dilution, 4 steps, area under ELISA curve, mean of three independent experiments.

For the substance “mAb CIS43: previously characterized NPDP-specific human anti-PfCSP mAb (IGHV1-3) [reference compound]”, the Kd was 15.6 nM in assay [1]; 1720 nM in [6] (Biacore T200, mAb captured via anti-human IgG on CM5, peptide 0-20 μM, 25°C, 1:1 binding model or steady-state analysis, single measurement for sample mAbs, three independent measurements for previously characterized mAbs, read-out: SPR NANP3 KD); 9.43 µM in assay [7]; 54.9 nM in assay [10]; 19.1 nM in assay [11]. In [2], the “ELISA AUC NPDP” value is reported as 1.50. Also, the “ELISA AUC NANP3” value in assay [3] (setting [15]) is recorded as 0.20. Also, the “SPR KQPA KD” value in assay [4] is given as “Non-binder”. For the same substance, in [5] (setting [15]), the “ELISA AUC NDN” value is recorded as 0.20. For the same substance, the “ELISA AUC KQPA” value in [8] (setting [15]) is reported as 0.10. Moreover, the “Traversal Inhibition IC50” value in [9] was 0.362 µg/mL.

With “Ky311: VH3-33/Vk3-11 anti-PfCSP mAb from Kymouse platform, expressed as human IgG1; MGG4-like binding mode”, the Kd in [1] worked out at 7.39 nM; in assay [4], 427 nM; in assay [7], 0.00107 µM; in assay [11], 3.75 nM. Also, in [9], the “Traversal Inhibition IC50” value was 0.664 µg/mL. Besides, the “Liver Burden Assay Reduction” value in assay [12] is given as 75%.

Take “QIQLVESGGGVVQPGRSLRLSCAASGFTFSTYGMHWVRQAPGKGLEWVAVIWYDGSNKYYADSVQGRFTISRDNSKNTLYLQMNSLRAEDTAIYYCTTVGPIPFDYWGQGTLVTVSS [CL-514716]”: the “DND KD (M)” value in assay [13] is reported as “Non-binder”. The “NANP3 KD (M)” value in [6] (SPR, NANP3 peptide) is reported as “Non-binder”.

With “LVQLVESGGGVVQPGRSLRLSCAASGFTFSSSGMHWVRQAPGKGLEWVAIIWYDGSNKFYADSVKGRFTISRDNSKNTLYLQMNSLRAEDTAVYYCARAYVSGSHGDKYGMDVWGQGTTVTVSS [CL-531912]”, the Kd in assay [6] (SPR, NANP3 peptide, read-out: NANP3 KD) worked out at 55 nM.

With “QVQLVESGGGVVQPGGSLRLSCAASGFTFSGSGMHWVRHAPGKGLEWVAIIWYDGSNKFYADSVKGRFTISRDNSRNTLYLQMNSLRAEDTAVYYCARAYVSGNYGDKYGMDVWGQGTTVTVSS [CL-532151]”, in assay [3] (ELISA Area Under the Curve, NANP3 peptide), the “NANP3 AUC” value is 1.84. Also, the “NDN AUC” value in [5] (ELISA Area Under the Curve, NDN peptide) was found to be 0.29. In addition, in assay [8] (ELISA Area Under the Curve, KQPA peptide), the “KQPA AUC” value amounted to 1.36. In addition, the “DND AUC” value in assay [14] came to 2.23.
